{
  "source": "patent US6489351B1",
  "about": "“Condensed 4,5,6,7-tetrahydrobenzo[C]thiophenes as enhancer for cell differentation induction factor action” (Takeda Chemical Industries, Ltd., priority 1996, dated 2002)",
  "key": {"[1]": {"system": "Chondrocytes, prepared from rabbit rib cartilage", "assay": "Anti-collagenase action in rabbit chondrocytes (IL-1-induced collagenase production)", "format": "cell-based", "details": "IL-1 30 ng/ml added, 48 hours, mean±SE, control with IL-1 21.9 ± 1.7, without IL-1 0.1 ± 0.1", "description": "Chondrocytes, prepared from rabbit rib cartilage, were suspended in Dulbecco's MEM (DMEM) supplemented with 10% FCS, sown to 12-well plates, and cultured until a confluent state was reached. After the culture broth was removed, the cells were cultured for 48 hours in serum-free DMEM containing IL-1 (30 ng/ml) and the sample compound. The collagenase produced upon induction by IL-1 stimulation and secreted in the culture broth was activated by trypsinization; after a soybean trypsin inhibitor was added to inactivate the trypsin, activity was determined with type I collagen as the substrate. The values obtained are given in mean±SE in Table 3. The data were statistically analyzed by Student's t-test."}},
  "data": [
    {"smiles": "CSc1oc(C(=O)O)c2c1-c1nc(-c3ccccc3)sc1CC2", "note": "[Example 25, 4,5-dihydro-8-methylthio-2-phenylfuro[3,4-e]benzothiazole-6-carboxylic acid]", "values": [
      {"measurement": "melting point", "value": "206 to 207 °C (dec.)"},
      {"measurement": "Collagenase Activity (units/ml)", "setting": "[1]; compound 10^−5 M", "value": "1.8 ± 0.6", "unit": "units/ml"},
      {"measurement": "Collagenase Activity (units/ml)", "setting": "[1]; compound 10^−6 M", "value": "11.0 ± 0.8", "unit": "units/ml"}
    ]}
  ]
}
